Values quoted from earlier work in patent publication US20090022786A1, “Oral pharmaceutical dosage form and manufacturing method thereof” (YUNG SHIN PHARM. IND. CO., LTD., priority 2007, published 2009).
Where a name gives a salt, the structure may show the parent alone. Read-outs that look alike come from different tables or passages of the source.

Experiments:
[1] = not given; remark: listed apart in the source
[2] = not given; remark: listed apart in the source
[3] = not given; remark: listed apart in the source
gastric acid secretion = conditions: oral
[4] = as glucuronate- or sulfate-associated form

| Solubility in chloroform (chloroform) | Solubility in ethanol (ethanol) | Solubility in methanol (methanol) | Solubility in water | Fraction eliminated with the faeces after biliary secretion [2, 4] | Fraction eliminated with urine [2, 4] | Binding to plasma protein ([2]; in vivo) | Half-life ([2]; in vivo) [min] | Fraction entering systematic circulation ([2]; oral) | Peak value of plasma concentration ([2]; oral single dose of 50 mg) [µg/mL] | Time of maximum plasma concentration ([2]; oral single dose of 50 mg) [h] | Fraction eliminated with urine ([3]; in 24 hours) | Elimination half-life ([3]; in vivo) [min] | Fraction eliminated with the faeces ([3]; in vivo) [%] | Absorption after oral administration ([3]; oral) | Time of maximum plasma concentration ([3]; oral) [min] | Stability at room temperature ([1]; room temperature) | SMILES | Stability to humidity and light ([1]; humidity and light) | Time to inhibition of gastric acid secretion (gastric acid secretion) [min] |
| --- | --- | --- | --- | --- | --- | --- | --- | --- | --- | --- | --- | --- | --- | --- | --- | --- | --- | --- | --- |
| extremely insoluble | soluble | soluble | somewhat | 1/30 | ⅔ | More than 90% | 60 to 120 | 50-60% | 1.5 | 1 to 2 |  |  |  |  |  |  | O=C(O)Cc1ccccc1Nc1c(Cl)cccc1Cl [Diclofenac sodium, 2-[(2,6-dichlorophenyl)amino] benzene acetic acid, monosodium salt] | accessible to be destroyed by humidity and light |  |
|  |  |  | soluble |  |  |  |  |  |  |  | 64-73% | 20 to 40 | 15 | rapidly absorbed | 15 to 30 | very unstable | CCCCC(C)(O)C/C=C/[C@H]1[C@H](O)CC(=O)[C@@H]1CCCCCCC(=O)OC (mixture of isomers) [Misoprostol, (±) methyl 11α,16-dihydroxy-16-methyl-9-oxoprost-13E-en-1-oate] |  | ≤ 30 |
